This passage reports inhibition and remaining activity results from patent US9492471B2, “Methods of treating a disease or disorder associated with Bruton'S Tyrosine Kinase” (Celgene Avilomics Research, Inc., priority 2013, dated 2016).

Like-named read-outs stand apart in the source and are kept apart here.

Holding throughout (experiment): HotSpot kinase profiling
Holding throughout (type): biochemical

In assay [1] the target is T1, TXK (Homo sapiens, UniProt P42681).
T1 construct: purchased Reaction Biology Corp
T1 sequence (P42681 1-527): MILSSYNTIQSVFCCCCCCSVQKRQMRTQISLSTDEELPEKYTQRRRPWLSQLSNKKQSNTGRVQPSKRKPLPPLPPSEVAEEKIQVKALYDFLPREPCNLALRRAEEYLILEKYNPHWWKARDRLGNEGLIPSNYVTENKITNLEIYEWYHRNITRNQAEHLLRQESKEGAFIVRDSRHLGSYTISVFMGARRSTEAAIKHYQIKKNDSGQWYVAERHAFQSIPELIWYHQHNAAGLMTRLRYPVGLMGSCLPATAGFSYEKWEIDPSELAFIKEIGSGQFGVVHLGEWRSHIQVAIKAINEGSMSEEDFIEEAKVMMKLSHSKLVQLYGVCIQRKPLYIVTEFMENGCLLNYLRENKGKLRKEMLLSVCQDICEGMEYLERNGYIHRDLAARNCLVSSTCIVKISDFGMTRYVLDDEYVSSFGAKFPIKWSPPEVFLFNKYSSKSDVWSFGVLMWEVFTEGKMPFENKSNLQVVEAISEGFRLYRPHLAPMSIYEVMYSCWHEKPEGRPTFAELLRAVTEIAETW
The procedure, abridged: (§1)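 Radio-isotope P81 filtration format. Substrate + required cofactors in reaction buffer, kinase added, 2 h RT. Stop, wash with 0.1% phosphoric acid, detect. % inhibition vs DMSO; mean of duplicates where repeated.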

The target in assay [2] is T2, NEK1 (Homo sapiens, UniProt Q96PY6).
T2 construct: purchased Reaction Biology Corp
T2 sequence (Q96PY6 1-1258): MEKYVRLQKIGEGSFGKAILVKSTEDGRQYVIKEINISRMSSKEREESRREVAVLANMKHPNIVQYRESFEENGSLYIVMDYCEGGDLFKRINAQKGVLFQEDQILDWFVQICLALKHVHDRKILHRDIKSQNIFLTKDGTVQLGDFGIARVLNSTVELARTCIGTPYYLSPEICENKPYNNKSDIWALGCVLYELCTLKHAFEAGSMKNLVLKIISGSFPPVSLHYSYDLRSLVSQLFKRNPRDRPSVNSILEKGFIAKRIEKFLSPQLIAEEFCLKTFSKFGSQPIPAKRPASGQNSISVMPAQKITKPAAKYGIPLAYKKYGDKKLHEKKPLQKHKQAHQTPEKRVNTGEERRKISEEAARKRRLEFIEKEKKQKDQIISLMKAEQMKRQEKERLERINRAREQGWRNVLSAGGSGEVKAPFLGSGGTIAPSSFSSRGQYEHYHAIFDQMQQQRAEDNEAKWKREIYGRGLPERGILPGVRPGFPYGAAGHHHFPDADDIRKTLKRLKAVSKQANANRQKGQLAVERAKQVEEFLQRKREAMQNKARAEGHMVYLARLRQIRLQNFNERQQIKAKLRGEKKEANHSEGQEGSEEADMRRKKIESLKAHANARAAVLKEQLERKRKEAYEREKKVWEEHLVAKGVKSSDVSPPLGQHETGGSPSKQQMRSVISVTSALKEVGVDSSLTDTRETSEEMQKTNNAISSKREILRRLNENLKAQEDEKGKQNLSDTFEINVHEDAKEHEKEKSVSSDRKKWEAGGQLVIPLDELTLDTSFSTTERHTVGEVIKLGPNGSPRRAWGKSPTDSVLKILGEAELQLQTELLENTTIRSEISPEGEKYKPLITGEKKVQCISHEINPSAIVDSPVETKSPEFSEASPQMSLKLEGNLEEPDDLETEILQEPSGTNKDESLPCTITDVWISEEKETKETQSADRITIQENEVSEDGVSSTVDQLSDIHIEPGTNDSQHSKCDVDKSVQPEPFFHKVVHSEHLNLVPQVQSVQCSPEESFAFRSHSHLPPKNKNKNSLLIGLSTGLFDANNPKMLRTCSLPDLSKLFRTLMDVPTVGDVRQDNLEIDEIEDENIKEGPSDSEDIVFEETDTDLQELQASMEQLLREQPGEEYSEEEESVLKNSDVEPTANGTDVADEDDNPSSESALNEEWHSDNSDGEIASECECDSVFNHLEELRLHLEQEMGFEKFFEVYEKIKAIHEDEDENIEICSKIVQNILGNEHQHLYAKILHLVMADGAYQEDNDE
The procedure, abridged: as §1

The target in assay [3] is T3, PKCiota (Homo sapiens, UniProt P41743).
T3 construct: purchased Reaction Biology Corp
T3 sequence (P41743 1-596): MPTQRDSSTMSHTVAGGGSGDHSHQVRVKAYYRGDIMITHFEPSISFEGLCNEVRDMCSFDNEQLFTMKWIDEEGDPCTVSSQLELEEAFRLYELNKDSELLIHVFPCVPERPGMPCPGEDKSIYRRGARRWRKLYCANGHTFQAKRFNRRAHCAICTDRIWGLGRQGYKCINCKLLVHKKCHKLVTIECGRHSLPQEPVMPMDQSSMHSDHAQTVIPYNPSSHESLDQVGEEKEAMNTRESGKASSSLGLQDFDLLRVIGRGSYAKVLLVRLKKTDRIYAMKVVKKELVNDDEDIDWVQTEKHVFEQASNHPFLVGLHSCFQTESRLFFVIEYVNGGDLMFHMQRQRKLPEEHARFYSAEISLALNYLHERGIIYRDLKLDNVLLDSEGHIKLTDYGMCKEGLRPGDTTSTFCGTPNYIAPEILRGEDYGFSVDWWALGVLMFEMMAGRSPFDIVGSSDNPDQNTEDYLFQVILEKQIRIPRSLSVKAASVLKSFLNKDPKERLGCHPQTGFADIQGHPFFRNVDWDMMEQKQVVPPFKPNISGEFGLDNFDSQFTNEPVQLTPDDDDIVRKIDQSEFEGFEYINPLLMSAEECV
The gist of the method: as §1

Setting [4] is: read-out: % Enzyme Activity (relative to DMSO controls) Run 1.
Where [5] appears, read: read-out: % Enzyme Activity (relative to DMSO controls) Run 2.

By inhibition is commonly meant the change of the read-out against control, counted positive when it falls. As for `C=CC(=O)Nc1cccc(Nc2nc(Nc3ccc(OCCOC)c(F)c3)ncc2F)c1` [Compound 2], the inhibition at 3 µM in assay [1] was 99.8%; in assay [2] it was 46.6%; in assay [3], -5.47%. For the same molecule, the remaining activity at 3 µM is 0.42% in assay [1] (setting [4]); 0.03% in assay [1] (setting [5]); 52.7% in assay [2] (setting [4]); 54% in assay [2] (setting [5]); 105% in assay [3] (setting [4]); 106% in assay [3] (setting [5]).
